Entries after “also recorded” stand apart in the source; their conditions may differ. Read-outs that look alike come from different tables or passages of the source. Square brackets hold non-standard residues; d marks the D form. Peptide text beside a SMILES is read from it. * marks the point of attachment. ξ: configuration not given here. Aoe(9ξ) = N[C@@H](CCCCCC(=O)C1CO1)C(=O)O; Asu = N[C@@H](CCCCCC(=O)O)C(=O)O; dPip = O=C(O)[C@H]1CCCCN1; NHOH = ON*
Assays:
PGRN [1] = conditions: cited from earlier work
H3K9ac [2] = conditions: treatment at 10 μM; cited from earlier work
PGRN [3] = assay: Intracellular PGRN ELISA in iPSC-derived NPCs; type: cell-based, human; conditions: for Effect on PGRN (1 μM, NPCs) / PGRN induction (in words): 18 h treatment; for Effect on PGRN (1 μM, NPCs): intracellular PGRN; for PGRN induction (in words): Figure 2; for EC50: Homo sapiens, read-out: EC50 of PGRN induction (dose-response curves)
H3K9ac [4] = assay: Histone H3 acetylation Western blot in NPCs; type: cell-based, human
HDAC1 = HDAC1 (Homo sapiens, UniProt Q13547); assay: biochemical; type: biochemical
HDAC2 = HDAC2 (Homo sapiens, UniProt Q92769); type: biochemical
HDACs 1–3 = assay: HDAC inhibition kinetics, summary statement over HDACs 1-3; type: biochemical; conditions: summary over HDACs 1–3 (Tables 1 and S1)
[5] = target: HDAC3 in combination with the DAD domain of NCoR2 (Homo sapiens, UniProt O15379); conditions: read-out: Ki HDAC3; cited from earlier work
[6] = system: human iPSC-derived NPCs and Ngn2 neurons; assay: Cellular viability during PGRN experiments; type: cell-based; conditions: 10 μM, 18 h treatment (Figure 2)
HDAC6 = conditions: previously reported; cited from earlier work
[7] = kinetic model from progression curves

HDAC2, sequence (Q92769 9-376 limits assumed): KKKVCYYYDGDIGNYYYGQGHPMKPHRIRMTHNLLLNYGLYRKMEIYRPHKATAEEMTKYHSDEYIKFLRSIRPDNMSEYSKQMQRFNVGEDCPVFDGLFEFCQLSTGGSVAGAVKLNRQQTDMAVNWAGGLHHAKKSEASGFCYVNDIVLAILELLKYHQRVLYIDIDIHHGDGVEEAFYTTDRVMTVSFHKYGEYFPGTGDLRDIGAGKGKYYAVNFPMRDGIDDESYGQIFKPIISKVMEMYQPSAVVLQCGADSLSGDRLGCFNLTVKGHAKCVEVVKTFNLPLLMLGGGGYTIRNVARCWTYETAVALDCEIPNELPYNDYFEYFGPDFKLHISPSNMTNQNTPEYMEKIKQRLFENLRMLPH
HDAC1, sequence (Q13547 9-376 limits assumed): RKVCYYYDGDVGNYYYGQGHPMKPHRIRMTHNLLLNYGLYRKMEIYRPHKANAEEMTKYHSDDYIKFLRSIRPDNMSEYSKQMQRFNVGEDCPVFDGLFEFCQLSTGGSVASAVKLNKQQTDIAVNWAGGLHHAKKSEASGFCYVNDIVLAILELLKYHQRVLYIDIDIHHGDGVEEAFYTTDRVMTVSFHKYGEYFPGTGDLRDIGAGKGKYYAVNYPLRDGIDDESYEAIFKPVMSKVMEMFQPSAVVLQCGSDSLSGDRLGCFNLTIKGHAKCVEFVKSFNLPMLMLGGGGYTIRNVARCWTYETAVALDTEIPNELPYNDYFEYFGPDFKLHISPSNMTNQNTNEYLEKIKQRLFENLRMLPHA
HDAC3 in combination with the DAD domain of NCoR2, sequence (O15379 whole entry, the tested form may be a part): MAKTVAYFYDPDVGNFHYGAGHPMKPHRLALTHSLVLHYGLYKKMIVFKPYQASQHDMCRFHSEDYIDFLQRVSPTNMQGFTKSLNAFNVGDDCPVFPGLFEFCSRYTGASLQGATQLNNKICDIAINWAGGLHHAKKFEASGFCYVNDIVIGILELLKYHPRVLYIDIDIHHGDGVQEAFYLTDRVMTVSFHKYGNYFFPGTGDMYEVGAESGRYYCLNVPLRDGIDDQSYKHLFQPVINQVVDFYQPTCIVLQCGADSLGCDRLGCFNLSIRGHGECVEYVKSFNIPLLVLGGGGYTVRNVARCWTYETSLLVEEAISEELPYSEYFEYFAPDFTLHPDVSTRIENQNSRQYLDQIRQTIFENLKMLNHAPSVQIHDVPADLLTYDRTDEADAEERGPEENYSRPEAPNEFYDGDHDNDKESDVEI
HDAC3 in combination with the DAD domain of NCoR2, sequence (Q9Y618 395-489 partner limits assumed): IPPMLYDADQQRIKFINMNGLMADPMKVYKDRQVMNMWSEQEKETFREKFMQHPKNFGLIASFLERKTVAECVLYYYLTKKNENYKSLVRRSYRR

Molecule	Effect on PGRN (1 μM, NPCs) (PGRN [3]; NPCs)	PGRN induction (in words) (PGRN [3]; NPCs)	Effect on H3K9ac (1 μM, NPCs) (H3K9ac [4]; NPCs, 18 h treatment)	Mechanism of binding HDAC1 (HDAC1; [7])	EC50 (PGRN [3]; 18 h) [nM]	Mechanism of binding HDAC2 (HDAC2; [7])	dissociative half-life (dis. t½) (HDACs 1–3)	also measured
O=C(CCCCCCC(=O)Nc1ccccc1)NO [Compound 1, SAHA]	–	–	–	–	–	–	–	Effect on PGRN (NPCs) (PGRN [1]; treatment at 10 μM): >2 fold incr.‡, [10]; Effect on H3K9ac (NPCs) (H3K9ac [2]): >20 fold incr.‡, [10]
O=C(CCCCCCC(=O)C(F)(F)F)Nc1ccccc1 [Compound 2, SATK]	No change	not able to affect PGRN production	No change	–	–	–	–	–
CC(=O)Nc1ccc(C(=O)Nc2ccccc2N)cc1 [Compound 3, tacedinaline]	–	not able to affect PGRN production	–	mechanism B type of slow-binding inhibition	> 20000	–	–	Effect on PGRN (NPCs) (PGRN [3]; treatment at 10 μM, NPCs, 18 h): Decrease^‡; Mechanism of binding HDAC2 (HDAC2): mechanism B type of slow-binding inhibition; Intensity of histone marks (H3 acetylation at K9 and K27) (H3K9ac [4]; Western blot, 18 h treatment, Figure 3 and S7): levels comparable to panobinostat; Effect on H3K9ac (NPCs) (H3K9ac [4]; treatment at 10 μM, NPCs, 18 h): ~18 fold incr^‡
CC(=O)Nc1ccc(C(=O)Nc2cc(-c3cccs3)ccc2N)cc1 [Compound 4, Cpd-60]	–	–	–	–	–	–	–	PGRN induction (in words) (PGRN [1]; human neuronal cell culture): not able to affect PGRN production
Cc1[nH]c2ccccc2c1CCNCc1ccc(/C=C/C(=O)NO)cc1 [Compound 5, panobinostat]	~2.3 fold incr.	–	~36 fold incr.	–	200 ± 10	slow, tight-binding inhibition profiles (mechanism B); also recorded: effectively irreversible behavior	over 20 min	–
O=C(CCCCC[C@@H]1NC(=O)[C@H]2CCCCN2C(=O)[C@H](Cc2ccccc2)NC(=O)[C@H](Cc2ccccc2)NC1=O)C1CO1 (stereo partly shown) [Compound 6, trapoxin A] (cyclo(FF[dPip][Aoe(9ξ)]))	~2.4 fold incr.	substantial increase in PGRN	~5.0 fold incr.	mechanism A kinetics	22 ± 1	mechanism A kinetics	–	Ki (HDAC1): ~0.003 nM
O=C(CCCCC[C@@H]1NC(=O)[C@H]2CCCN2C(=O)[C@H](Cc2ccccc2)NC(=O)[C@H](Cc2ccccc2)NC1=O)NO [Compound 7c, TpxB^Asuha] (cyclo([Asu](NHOH)FF[dP]))	~2.2 fold incr.	substantial increase in PGRN	~6.3 fold incr.	–	–	–	over 20 min	Ki [5]: ~0.02 nM
CCC(=O)CCCCC[C@@H]1NC(=O)[C@H]2CCCCN2C(=O)[C@H]([C@@H](C)CC)NC(=O)[C@H](Cc2cn(OC)c3ccccc23)NC1=O [Compound 8a, apicidin]	~1.7 fold incr.	–	~3.3 fold incr.	–	790 ± 20	fast-on/fast-off binding kinetics	–	Mechanism of binding HDAC1 (HDAC1): fast-on/fast-off binding kinetics
C/C=C1\NC(=O)[C@H]2CSSCC/C=C/[C@H](CC(=O)N[C@H](C(C)C)C(=O)N2)OC(=O)[C@H](C(C)C)NC1=O [Compound 10, romidepsin]	~4.1 fold incr.	substantial increase in PGRN	~2.3 fold incr.	slow, tight-binding (mechanism B)	–	–	over 20 min	Ki (HDAC1): ~0.02 nM; Cellular viability [6]: impaired cellular viability
C[C@@H]1NC(=O)[C@H]2CCCN2C(=O)[C@H](CCCCCC(=O)[C@@H]2CO2)NC(=O)[C@@H](C)NC1=O [Compound S2, HC-toxin]	–	–	–	–	–	–	–	Mechanism of binding HDAC6 (HDAC6): fast-on/fast-off kinetics
trichostatin A [Compound S1]	–	–	–	slow, tight-binding inhibition profiles (mechanism B)	–	slow, tight-binding inhibition profiles (mechanism B)	over 20 min	–
